The subject of test [1] is Enterococcus faecalis. Put plainly: In vitro minimum inhibitory concentration against Enterococcus faecalis (STCO-19). Type of test: functional.
Test [2] relates to Staphylococcus aureus. Put plainly: In vitro minimum inhibitory concentration against Staphylococcus aureus (SFCO-1a). Type of test: functional.
The subject of test [3] is Staphylococcus aureus.
For test [4], the system named is Enterococcus faecalis.

In brackets after ≈: the same amount, converted by molar mass. Some results are limits rather than exact numbers.

With `COC(=O)c1nnn(CC2CN(c3ccc(C(C)=O)cc3)C(=O)O2)c1C(=O)OC` (stereo not given), the MIC in test [1] and in test [2] was above 128 µg/mL throughout.

On to `CCC1CN(c2ccc(S(C)(=O)=O)cc2)C(=O)O1` (stereo not given), for which the MIC in test [1] and in test [2] was 128 µg/mL (≈ 475 µM) throughout.

As to `CSc1ccc(N2CC(CO)OC2=O)cc1` (stereo not given), the MIC in test [1] and in test [2] was 128 µg/mL (≈ 535 µM) throughout.

For `CC(=O)c1ccc(N2CC(CN3C(=O)c4ccccc4C3=O)OC2=O)cc1` (stereo not given), the minimal inhibitory concentration (MIC) in test [1] and in test [2] was above 128 µg/mL each time.

Turning to `NS(=O)(=O)c1ccc(N2CC(CO)OC2=O)cc1` (stereo not given), the MIC in test [1] and in test [2] was 128 µg/mL (≈ 470 µM) throughout.

As to `CC(=O)NC[C@H]1CN(c2ccc(C(C)=O)cc2)C(=O)O1` [DUP-721], the MIC (in general, the lowest concentration found to suppress growth) in test [1] is 1 µg/mL (≈ 3.62 µM); in test [2] it was 0.5 µg/mL (≈ 1.81 µM).

As to `CC(=O)c1ccc(N2C[C@H](CNC(=O)C(Cl)Cl)OC2=O)cc1`, the MIC in test [1] and in test [2] was 2 µg/mL (≈ 5.79 µM) each time.

`NS(=O)(=O)c1ccc(N2CC(CCl)OC2=O)cc1` (stereo not given): the MIC in test [1] was above 128 µg/mL; in test [2] it was 16 µg/mL (≈ 55 µM).

Consider `CC1CN(c2ccc(S(C)(=O)=O)cc2)C(=O)O1` (stereo not given), for which the figures for the MIC in test [1] and in test [2] were 128 µg/mL (≈ 501 µM) and 64 µg/mL (≈ 251 µM), respectively.

Take `CS(=O)(=O)c1ccc(N2CC(CN)OC2=O)cc1` (stereo not given): the MIC in test [1] and in test [2] was above 128 µg/mL in each case.

As for `CC(=O)c1ccc(N2CC(CO)OC2=O)cc1` (stereo not given), the MIC in test [1] and in test [2] was 16 µg/mL (≈ 68 µM) in each case.

As to `CC(=O)c1ccc(N2C[C@H](CNC=O)OC2=O)cc1`, the MIC in test [1] was 8 µg/mL (≈ 30.5 µM); in test [2] it was 4 µg/mL (≈ 15.3 µM).

Turning to `CCC(=O)NC[C@H]1CN(c2ccc(C(C)=O)cc2)C(=O)O1`, the MIC in test [1] and in test [2] was 4 µg/mL (≈ 13.8 µM) each time.

For the compound `CCCC(=O)OCC1CN(c2ccc(C(C)=O)cc2)C(=O)O1` (stereo not given), the values for the MIC in test [1] and in test [2] were above 128 µg/mL and 64 µg/mL (≈ 210 µM), respectively.

With `CS(=O)(=O)c1ccc(N2CC(CN=[N+]=[N-])OC2=O)cc1` (stereo not given), the MIC is 8 µg/mL (≈ 27 µM) in test [1] and 16 µg/mL (≈ 54 µM) in test [2].

As for `C[S+]([O-])c1ccc(N2CC(CCl)OC2=O)cc1` (stereo not given), the MIC in test [1] and in test [2] was 32 µg/mL (≈ 117 µM) throughout.

With `CC(=O)NCC(=O)NC[C@H]1CN(c2ccc(C(C)=O)cc2)C(=O)O1`, the figures for the MIC in test [1] and in test [2] were above 128 µg/mL and 128 µg/mL (≈ 384 µM), respectively.

`CC(=O)NCC1CN(c2ccc(C(C)C)cc2)C(=O)O1` (stereo not given): the MIC in test [1] and in test [2] was 4 µg/mL (≈ 14.5 µM) throughout.

With `CC1CN(c2ccc(C(C)C)cc2)C(=O)O1` (stereo not given), the MIC in test [1] and in test [2] was 128 µg/mL (≈ 584 µM) throughout.

Regarding `CC(=O)c1ccc(N2CC(CCl)OC2=O)cc1` (stereo not given), the values for the MIC in test [1] and in test [2] were 64 µg/mL (≈ 252 µM) and 32 µg/mL (≈ 126 µM), respectively.

`CN[C@H](CC(C)C)C(=O)N[C@H]1C(=O)N[C@@H](CC(N)=O)C(=O)N[C@H]2C(=O)N[C@H]3C(=O)N[C@H](C(=O)N[C@H](C(=O)O)c4cc(O)cc(O)c4-c4cc3ccc4O)[C@H](O)c3ccc(c(Cl)c3)Oc3cc2cc(c3O[C@@H]2O[C@H](CO)[C@@H](O)[C@H](O)[C@H]2O[C@H]2C[C@](C)(N)[C@H](O)[C@H](C)O2)Oc2ccc(cc2Cl)[C@H]1O` [VANCOMYCIN] showed an MIC in test [1] of 2 µg/mL (≈ 1.38 µM).

Regarding `CC(=O)c1ccc(N2CC(CN)OC2=O)cc1.Cl` (stereo not given), the MIC in test [1] and in test [2] was above 128 µg/mL throughout.

Turning to `COC(=O)NC[C@H]1CN(c2ccc(C(C)=O)cc2)C(=O)O1`, the MIC in test [1] and in test [2] was 4 µg/mL (≈ 13.7 µM) in each case.

Consider `COCC(=O)NC[C@H]1CN(c2ccc(C(C)=O)cc2)C(=O)O1`, for which the MIC in test [1] and in test [2] was 32 µg/mL (≈ 104 µM) throughout.

Take `C[S+]([O-])c1ccc(N2CC(CO)OC2=O)cc1` (stereo not given): the MIC in test [1] and in test [2] was 64 µg/mL (≈ 251 µM) throughout.

With `CC(=O)c1ccc(N2CC(CN=[N+]=[N-])OC2=O)cc1` (stereo not given), the MIC in test [1] and in test [2] was above 128 µg/mL throughout.

Consider `[N-]=[N+]=NCC1CN(c2ccc(S(N)(=O)=O)cc2)C(=O)O1` (stereo not given), for which the MIC in test [1] came out at 64 µg/mL (≈ 215 µM); in test [2], 32 µg/mL (≈ 108 µM).

As to `CC(C)c1ccc(N2CC(CO)OC2=O)cc1` (stereo not given), the MIC in test [1] was 32 µg/mL (≈ 136 µM); in test [2] it was 64 µg/mL (≈ 272 µM).

`CSc1ccc(N2CC(C)OC2=O)cc1` (stereo not given): the MIC in test [1] and in test [2] was above 128 µg/mL in each case.

In the case of `CC(=O)c1ccc(N2CC(C)OC2=O)cc1` (stereo not given), the minimal inhibitory concentration (MIC) in test [1] and in test [2] was above 128 µg/mL each time.

For the compound `CC(=O)c1ccc(N2C[C@H](CNC(=O)CSC#N)OC2=O)cc1`, the MIC in test [1] and in test [2] was 32 µg/mL (≈ 96 µM) each time.

Take `CC(=O)c1ccc(N2C[C@H](CNC(=O)C3CC3)OC2=O)cc1`: the MIC in test [1] worked out at 4 µg/mL (≈ 13.2 µM); in test [2], 8 µg/mL (≈ 26.5 µM).

For `CC(=O)NCC1CN(c2ccc(S(C)(=O)=O)cc2)C(=O)O1` (stereo not given), the MIC in test [1] and in test [2] was 4 µg/mL (≈ 12.8 µM) throughout.

Regarding `CSc1ccc(N2CC(CCl)OC2=O)cc1` (stereo not given), the MIC in test [1] and in test [2] was above 128 µg/mL each time.

Turning to `CS(=O)(=O)c1ccc(N2CC(CO)OC2=O)cc1` (stereo not given), the MIC in test [1] and in test [2] was 16 µg/mL (≈ 59 µM) each time.

As for GENTAMICIN, the MIC in test [3] came out at 0.25 µg/mL; in test [4] it was 16 µg/mL.

For `CCC1CN(c2ccc(C(C)C)cc2)C(=O)O1` (stereo not given), the MIC in test [1] and in test [2] was above 128 µg/mL throughout.

For `CC(=O)CC(=O)NC[C@H]1CN(c2ccc(C(C)=O)cc2)C(=O)O1`, the values for the MIC in test [1] and in test [2] were 16 µg/mL (≈ 50.3 µM) and 8 µg/mL (≈ 25.1 µM), respectively.

On to `CC(=O)OCC1CN(c2ccc(C(C)C)cc2)C(=O)O1` (stereo not given), for which the MIC in test [1] and in test [2] was 128 µg/mL (≈ 462 µM) in each case.

Regarding `CC1=C(C(=O)O)N2C(=O)[C@@H](NC(=O)[C@H](N)c3ccccc3)[C@H]2SC1` [CEPHALEXIN ANHYDROUS], the MIC in test [1] was 64 µg/mL (≈ 184 µM); in test [2], 0.5 µg/mL (≈ 1.44 µM).

On to `CC(=O)NCC1CN(c2ccc([S+](C)[O-])cc2)C(=O)O1` (stereo not given), for which the MIC in test [1] and in test [2] was 4 µg/mL (≈ 13.5 µM) throughout.

Consider `CC(=O)c1ccc(N2CC(CN)OC2=O)cc1` (stereo not given), for which the MIC in test [1] and in test [2] was above 128 µg/mL in each case.

On to `CSc1ccc(N2CC(CNC(C)=O)OC2=O)cc1` (stereo not given), for which the MIC in test [1] and in test [2] was 4 µg/mL (≈ 14.3 µM) in each case.

For `C=CC1CN(c2ccc(C(C)=O)cc2)C(=O)O1` (stereo not given), the MIC in test [1] and in test [2] was above 128 µg/mL each time.

Take `CC(=O)c1ccc(N2CC(CF)OC2=O)cc1` (stereo not given): the values for the MIC in test [1] and in test [2] were 128 µg/mL (≈ 540 µM) and 64 µg/mL (≈ 270 µM), respectively.

On to `CS(=O)(=O)c1ccc(N2CC(CCl)OC2=O)cc1` (stereo not given), for which the minimal inhibitory concentration (MIC) in test [1] worked out at 4 µg/mL (≈ 13.8 µM); in test [2], 8 µg/mL (≈ 27.6 µM).

As to `CC(=O)c1ccc(N2CC(COS(=O)(=O)c3ccc(C)cc3)OC2=O)cc1` (stereo not given), the MIC in test [1] and in test [2] was 8 µg/mL (≈ 20.5 µM) throughout.

Turning to `CC(C)c1ccc(N2CC(CN=[N+]=[N-])OC2=O)cc1` (stereo not given), the MIC in test [1] and in test [2] was above 128 µg/mL in each case.

For the compound `CC(=O)c1ccc(N2C[C@H](CNC(=O)CC#N)OC2=O)cc1`, the MIC in test [1] was 8 µg/mL (≈ 26.6 µM); in test [2], 16 µg/mL (≈ 53.1 µM).

For the compound `CC(C)c1ccc(N2CC(CCl)OC2=O)cc1` (stereo not given), the MIC in test [1] and in test [2] was 64 µg/mL (≈ 252 µM) throughout.

Take `CC(=O)c1ccc(N2C[C@H](CNC(=O)OC(C)(C)C)OC2=O)cc1`: the MIC in test [1] and in test [2] was 128 µg/mL (≈ 383 µM) in each case.

Take `CC(=O)NCC1CN(c2ccc(S(N)(=O)=O)cc2)C(=O)O1` (stereo not given): the MIC in test [1] stood at 16 µg/mL (≈ 51.1 µM); in test [2], 32 µg/mL (≈ 102 µM).

Take `CC(=O)c1ccc(N2CC(COP(=O)(O)O)OC2=O)cc1` (stereo not given): the MIC in test [1] and in test [2] was above 128 µg/mL in each case.

Turning to `CCCC(=O)NC[C@H]1CN(c2ccc(C(C)=O)cc2)C(=O)O1`, the MIC in test [1] and in test [2] was 8 µg/mL (≈ 26.3 µM) each time.

Regarding `CC(=O)c1ccc(N2C[C@H](CNC(=O)C(C)C)OC2=O)cc1`, the MIC in test [1] worked out at 16 µg/mL (≈ 52.6 µM); in test [2] it was 8 µg/mL (≈ 26.3 µM).

For the compound `CC(=O)c1ccc(N2C[C@H](CNC(N)=O)OC2=O)cc1`, the MIC in test [1] worked out at 1 µg/mL (≈ 3.61 µM); in test [2] it was 4 µg/mL (≈ 14.4 µM).

`CC(=O)c1ccc(N2CC(CN3CCOCC3)OC2=O)cc1` (stereo not given): the MIC in test [1] and in test [2] was above 128 µg/mL in each case.

On to `CC(=O)c1ccc(N2C[C@H](CNC(=O)N(C)C)OC2=O)cc1`, for which the minimal inhibitory concentration (MIC) in test [1] and in test [2] was 128 µg/mL (≈ 419 µM) throughout.

The values above are taken from ChEMBL document CHEMBL1124541, “Antibacterials. Synthesis and structure-activity studies of 3-aryl-2-oxooxazolidines. 1. The "B" group” (1989).
